Reference: patent US8092838B2, “Use of hydrogen sulfide in the treatment of eye diseases” (The University of Houston System, priority 2005, dated 2012)
Like-named read-outs stand apart in the source and are kept apart here.

What was measured:
isolated porcine iris = test: Relaxation of carbachol-induced tone in isolated porcine iris muscle strips; type: cell-based
[1] = tested on: isolated porcine iris-ciliary bodies; type: cell-based; conditions: for effect on NaHS-induced inhibition of evoked [3H]NE release: modifier 1 mM, NaHS 1 μM
[2] = tested on: isolated porcine iris-ciliary body; test: Norepinephrine concentration in isolated porcine iris-ciliary body (HPLC); type: cell-based; conditions: NaHS 30-300 μM
Description: The data support results obtained from neurotransmitter release studies which show a decrease in norepinephrine output.
To determine the mechanism of action of H2S donors on sympathetic neurotransmitter pools in the anterior uvea, the direct effect of NaHS was studied on catecholamine (norepinephrine, epinephrine and dopamine) concentrations in porcine iris-ciliary bodies using […] Liquid Chromatography techniques. […] Data from this study supports the previous observation that H2S donors can reduce the release of [^3H]NE from isolated porcine irides. It appears that by reducing the availability of the neurotransmitter (norepinephrine), H2S can attenuate sympathetic neurotransmission in porcine anterior uvea.

[3] = tested on: normotensive, conscious albino rabbits; test: Intraocular pressure after topical application in normotensive, conscious albino rabbits (pneumatonometer)
Description: A 1% dose of NaHS was applied topically to one eye and the saline vehicle to the other eye.
The effect of a generator of H2S in biological tissues (NaHS) on intraocular pressure in normotensive, conscious albino rabbits was examined. In the eyes of a rabbit, the desired intraocular pressure is around 20 mm Hg. While in human, the desired intraocular pressure in the eye is in the range of from about 12 mm Hg to 15 mm Hg. Ranges of about 18 to 24 mm Hg in a human eye are generally considered elevated. Two baseline intraocular pressure measurements were made in nine rabbits using a pneumatonometer (Medtronic, Model 30 Classic, Jacksonville, Fla.) at −1, and 0 hour after topical application of proparacaine 0.5%. NaHS (1%, dissolved in sterile saline solution) was applied topically to one eye of each animal while the saline vehicle was administered to the other (control) eyes. Intraocular pressures were measured in both eyes at +0.5, +1, +3, and +6 hours after instillation of the drug and vehicle.

Q: For `COc1ccc(Cl)cc1C(=O)NCCc1ccc(S(=O)(=O)NC(=O)NC2CCCCC2)cc1` [glibenclamide], which “shift of concentration-response curves to NaHS” value (from here on “shift … to NaHS”) (isolated porcine iris; glibenclamide 300 μM) is on record?
A: significant rightward shift

Q: `NOCC(=O)O` [AOA, aminooxyacetic acid, reference compound] was tested. Which “effect on NaHS-induced inhibition of evoked [3H]NE release” value [1] did it give?
A: blocked the inhibitory response elicited by NaHS

Q: What about the “shift … to NaHS” value (isolated porcine iris; AOA 30 μM) of the same molecule?
A: significant (P<0.001) rightward shifts

Q: What does the source list for sodium sulfide [Na2S]?
A: basal tritium efflux [1]: without affecting basal tritium efflux; electrically-evoked [3H]NE release [1]: concentration-dependent inhibition; IC50 (isolated porcine iris): 70 µM

Q: What does the source list for `C[S+](CC[C@H](N)C(=O)O)C[C@H]1O[C@@H](n2cnc3c(N)ncnc32)[C@H](O)[C@@H]1O` (stereo partly drawn) [SAM, S-adenosyl-L-methionine]?
A: effect on relaxations induced by the higher concentration of NaHS (isolated porcine iris): attenuated; shift of NaHS concentration-response curve (isolated porcine iris): significant leftward shift

Q: For `N#CC[C@H](N)C(=O)O` [BCA, β-cyano-L-alanine], which “shift … to NaHS” value (isolated porcine iris; modifier 1 mM) is on record?
A: shifted concentration-response curves to NaHS to the right

Q: Which results are given for `S` [NaHS, sodium hydrosulfide]?
A: stimulation-evoked [3H]NE release ([1]; 1 μM applied 8 minutes before and during S2): marked inhibition; electrically-evoked [3H]NE overflow ([1]; NaHS 0.1-100 μM): concentration-dependent inhibition; norepinephrine concentrations in the isolated porcine iris-ciliary body [2]: concentration-dependent decrease; relaxation of tone induced by a submaximal concentration of carbachol (isolated porcine iris; NaHS 30 nM-100 μM): concentration-related relaxation; relative potency in eliciting relaxation of tone (isolated porcine iris; NaHS versus Na2S): more potent than Na2S; IC50 (isolated porcine iris; Sus scrofa, concentration range 30 nM to 300 μM): 7 µM; effect on intraocular pressure in the treated eyes ([3]; NaHS 1% in sterile saline, topical, one eye, measured +0.5, +1, +3, +6 hours): time-dependent significant (p<0.001) reduction in intraocular pressure; intraocular pressure in contralateral eyes treated with only the saline vehicle ([3]; NaHS 1% topical to the other eye): parallel (but smaller) decrease in intraocular pressure; hyperemia and/or papillary changes ([3]; NaHS 1% topical, experimental and control eyes, all times tested): No hyperemia and/or papillary changes were observed; time of maximum reduction in intraocular pressure ([3]; NaHS 1% topical, treated eyes): 3 h; intraocular pressure after 6 hours ([3]; NaHS 1% topical, treated eyes, 6 hours): remained depressed

Q: With `C#CCC(N)C(=O)O` (stereo not shown) [PAG, propargylglycine, reference compound] as the molecule, how does the “effect on NaHS-induced inhibition of evoked [3H]NE release” value [1] read?
A: blocked the inhibitory response elicited by NaHS

Q: And the “shift … to NaHS” value (isolated porcine iris; modifier 1 mM)?
A: shifted concentration-response curves to NaHS to the right
